Reference: patent publication EP4786466A1, “QUINAZOLINE DERIVATIVE, SALT THEREOF, AND PHARMACEUTICAL COMPOSITION COMPRISING SAME AS ACTIVE INGREDIENT” (Korea Research Institute of Chemical Technology, priority 2023, dated 2025)
Like-named read-outs stand apart in the source and are kept apart here.

How the values were obtained:
pENSA = pENSA level by immunofluorescence (described method: in vitro kinase analysis with GST-tag-MASTL and His-tag-ENSA); type: cell-based; conditions: for pENSA (%) Immunofluor ecense (1 µM): compound 1 µM
Description: Two recombinant GST-tag-MASTL (Thermo Fisher Scientific) and His-tag-ENSA (Sino Biological Inc., Beijing, China) were used for in vitro kinase analysis. In vitro kinase analysis was performed as described in the literature [Front Oncol 2020, 10, 571601, 39-202021-10-20doi:10.3389/fonc.2020.571601.].
Phosphorylated ENSA (pENSA), which is activated by phosphorylation by MASTL, can be utilized as a biomarker as it is expected that its activity will be inhibited along with the inhibition of MASTL. In the cell viability assay, MCF7 refers to a breast cancer cell line, and MCF10A refers to a normal breast […] cell line.

[1] = target: T1, Recombinant GST-TAG-MASTL (Homo sapiens, UniProt Q96GX5); assay: HTRF-based kinase assay (HTRF KinEASE assay kit); type: biochemical; conditions: for activity at 1 µM: read-out: MASTL activity (%) HTRF (1 µM)
T1 construct: GST; purchased Thermo Fisher Scientific
T1 sequence (Q96GX5 1-879): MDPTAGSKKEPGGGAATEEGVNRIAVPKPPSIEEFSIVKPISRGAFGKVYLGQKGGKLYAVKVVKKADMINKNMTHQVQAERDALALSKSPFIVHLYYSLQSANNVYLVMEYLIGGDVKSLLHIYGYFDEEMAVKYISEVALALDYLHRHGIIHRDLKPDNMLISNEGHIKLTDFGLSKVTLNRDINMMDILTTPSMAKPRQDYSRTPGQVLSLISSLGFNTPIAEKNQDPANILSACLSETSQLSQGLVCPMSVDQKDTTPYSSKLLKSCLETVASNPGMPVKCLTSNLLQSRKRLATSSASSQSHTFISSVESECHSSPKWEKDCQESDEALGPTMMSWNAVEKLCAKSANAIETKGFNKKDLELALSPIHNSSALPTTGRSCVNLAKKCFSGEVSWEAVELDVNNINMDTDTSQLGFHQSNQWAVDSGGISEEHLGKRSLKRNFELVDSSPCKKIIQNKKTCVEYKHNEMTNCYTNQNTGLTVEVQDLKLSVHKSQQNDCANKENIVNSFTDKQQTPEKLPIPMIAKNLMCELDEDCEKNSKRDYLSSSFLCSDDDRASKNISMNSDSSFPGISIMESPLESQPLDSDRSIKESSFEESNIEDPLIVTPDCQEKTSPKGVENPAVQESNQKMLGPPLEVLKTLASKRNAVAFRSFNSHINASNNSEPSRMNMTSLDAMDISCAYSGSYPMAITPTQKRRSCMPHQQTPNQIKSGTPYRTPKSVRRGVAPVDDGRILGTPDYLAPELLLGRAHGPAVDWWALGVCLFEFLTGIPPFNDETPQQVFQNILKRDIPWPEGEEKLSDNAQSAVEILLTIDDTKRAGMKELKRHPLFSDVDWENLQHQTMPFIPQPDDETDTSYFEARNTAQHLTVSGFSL
From the text: Recombinant GST-TAG-MASTL (Thermo Fisher Scientific, MA, USA) was used for HTRF-based kinase assays. The HTRF KinEASE assay kit (CisBio, MA, USA) was used according to the manufacturer's instructions.

[2] = test system: MCF7 breast cancer cell lines; assay: Cell viability analysis, WST-8 assay, MCF7; conditions: Homo sapiens, MCF7, 72 h; for viability at 10 µM: read-out: Cell viability (%) WST-8, MCF7, footnote b: concentration 10 µM, 72 hours; for IC50: read-out: IC50 Cell viability (MCF7)
Description: MCF7 breast cancer cell lines and MCF10A normal breast cancer cell lines were treated with serial dilutions of the compounds of the present invention ranging from 1 µM to 15.63 nM for 72 hours. Cell viability was measured by the WST-8 assay (Cyto XTM cell viability assay kit; LPS solution, Daejeon, Korea) according to the manufacturer's instructions.

[3] = footnote b: concentration 10 µM
[4] = read-out: MASTL activity (%) HTRF
[5] = read-out: Cell viability (%) WST-8, MCF7 (1 µM), compound 1 µM, 72 hours
[6] = HTRF, read-out: IC50(nM) MASTL activity
[7] = read-out: Cell viability (%) WST-8, MCF7 (1 µM)
[8] = footnote b: concentration 10 µM, read-out: MASTL activity (%) HTRF

SMILES | pENSA (%) Immunofluor ecense (pENSA; [3]) | viability at 10 µM [2] [%] | IC50 [1, 6] [nM] | IC50 (pENSA; unit µM, read-out: IC50 pENSA) [nM] | activity at 10 µM [1, 8] [%] | IC50 [2] [µM] | also measured
Cc1nn(CC(C)C)c(C)c1Nc1nc(Nc2ccc(CC#N)cc2)nc2ccccc12 [compound 3b, 2-(4-((4-((1-isobutyl-3,5-dimethyl-1G-pyrazol-4-yl)amino)quinazolin-2-yl)amino)phenyl)acetonitrile] | 44.3^b % | 55.5 | – | – | – | – | activity at 10 µM [1, 4]: 123%
Cc1n[nH]cc1Nc1nc(Nc2ccc(CC#N)cc2)nc2ccccc12 [compound 3e, 2-(4-((4-((3-methyl-1G-pyrazol-4-yl)amino)quinazolin-2-yl)amino)phenyl)acetonitrile] | 102^b % | 108 | – | – | – | – | activity at 10 µM [1, 4]: 100%
N#CCc1ccc(Nc2nc(Nc3cc[nH]n3)c3ccccc3n2)cc1 [compound 3o, 2-(4-((4-((1G-pyrazol-3-yl)amino)quinazolin-2-yl)amino)phenyl)acetonitrile] | – | – | – | – | – | – | IC50 [1]: 2600 nM; activity at 1 µM [1]: 102%; viability at 1 µM [2, 5]: 108%
Cc1cc(Nc2nc(Nc3ccc(CC#N)cc3)nc3ccccc23)n[nH]1 [compound 3p, 2-(4-((4-((5-methyl-1G-pyrazol-3-yl)amino)quinazolin-2-yl)amino)phenyl)acetonitrile] | – | – | 330 | – | – | – | pENSA (%) Immunofluor ecense (1 µM) (pENSA): 27.5%; IC50 (pENSA; read-out: IC50(nM) pENSA): 239 nM; activity at 1 µM ([1]; compound 1 µM): 53.1%; viability at 1 µM [2, 7]: 106%
N#CCc1ccc(Nc2nc(Nc3cc(Br)[nH]n3)c3ccccc3n2)cc1 [compound 3q, 2-(4-((4-((5-bromo-1G-pyrazol-3-yl)amino)quinazolin-2-yl)amino)phenyl)acetonitrile] | – | – | – | – | – | – | IC50 [1]: 640 nM; activity at 1 µM [1]: 63.1%; viability at 1 µM [2, 5]: 105%
COc1cc(Nc2nc(Nc3ccc(CC#N)cc3)nc3ccccc23)n[nH]1 [compound 3r, 2-(4-((4-((5-methoxy-1G-pyrazol-3-yl)amino)quinazolin-2-yl)amino)phenyl)acetonitrile] | – | – | – | – | – | – | IC50 [1]: 816 nM; activity at 1 µM [1]: 67.2%; viability at 1 µM [2, 5]: 98.3%
N#CCc1ccc(Nc2nc(Nc3n[nH]c4ccccc34)c3ccccc3n2)cc1 [compound 3s, 2-(4-((4-((1G-indazol-3-yl)amino)quinazolin-2-yl)amino)phenyl)acetonitrile] | – | – | – | – | – | – | pENSA (%) Immunofluor ecense (1 µM) (pENSA): 60.6%; IC50 ([1]; HTRF, unit µM, read-out: IC50 MASTL activity): 4400 nM; activity at 1 µM ([1]; compound 1 µM): 102%; viability at 1 µM [2, 7]: 100%
N#CCc1ccc(Nc2nc(Nc3ccccc3OCc3ccccc3)c3ccccc3n2)cc1 [compound 3t, 2-(4-((4-((2-(benzyloxy)phenyl)amino)quinazolin-2-yl)amino)phenyl)acetonitrile] | – | – | – | – | – | – | activity at 1 µM ([1]; compound 1 µM): 120%; viability at 1 µM [2, 5]: 45.4%
N#CCc1ccc(Nc2nc(Nc3ccccc3O)c3ccccc3n2)cc1 [compound 3u, 2-(4-((4-((2-hydroxyphenyl)amino)quinazolin-2-yl)amino)phenyl)acetonitrile] | – | – | – | – | – | – | IC50 (pENSA; read-out: IC50(nM) pENSA): 678 nM; activity at 1 µM ([1]; compound 1 µM): 121%; viability at 1 µM [2, 5]: 49.3%
O=S(=O)(c1ccc(-c2ccccc2)cc1)N1CC2CC1CN2c1nc(Nc2cc(C3CC3)[nH]n2)c2ccccc2n1 (centres unmarked) [compound 15aa, 2-(5-([1,1'-biphenyl]-4-ylsulfonyl)-2,5-diazabicyclo[2.2.1]heptan-2-yl)-M-(5-cyclopropyl-1G-pyrazol-3-yl)quinazolin-4-amine] | – | – | – | – | – | – | pENSA (%) Immunofluor ecense (pENSA; footnote d: concentration 1.1 µM): 61.2^d %; activity at 1.1 µM [1, 4]: 55.5%; viability at 1.1 µM ([2]; read-out: Cell viability (%) WST-8, MCF7, footnote d: concentration 1.1 µM, 72 hours): 87.5%
O=S(=O)(c1cccs1)N1CC2CC1CN2c1nc(Nc2cc(C3CC3)[nH]n2)c2ccccc2n1 (centres unmarked) [compound 15ab, M-(5-cyclopropyl-1G-pyrazol-3-yl)-2-(5-(thiophen-2-ylsulfonyl)-2,5-diazabicyclo[2.2.1]heptan-2-yl)quinazolin-4-amine] | 0.4^b % | 3.9 | 222 | 2500 | 17.3 | 2.4 | –
O=S(=O)(C1CC1)N1CC2CC1CN2c1nc(Nc2cc(C3CC3)[nH]n2)c2ccccc2n1 (centres unmarked) [compound 15i, M-(5-cyclopropyl-1G-pyrazol-3-yl)-2-(5-(cyclopropylsulfonyl)-2,5-diazabicyclo[2.2.1]heptan-2-yl)quinazolin-4-amine] | 0.2^b % | 5.2 | 310 | 2100 | 15.5 | 2 | –
O=S(=O)(C1CCCCC1)N1CC2CC1CN2c1nc(Nc2cc(C3CC3)[nH]n2)c2ccccc2n1 (centres unmarked) [compound 15k, 2-(5-(cyclohexylsulfonyl)-2,5-diazabicyclo[2.2.1]heptan-2-yl)-M-(5-cyclopropyl-1G-pyrazol-3-yl)quinazolin-4-amine] | 0.5^b % | 12.7 | 152 | 3500 | 11.3 | 4.1 | –
O=S(=O)(Cc1ccccc1)N1CC2CC1CN2c1nc(Nc2cc(C3CC3)[nH]n2)c2ccccc2n1 (centres unmarked) [compound 15l, 2-(5-(benzylsulfonyl)-2,5-diazabicyclo[2.2.1]heptan-2-yl)-M-(5-cyclopropyl-1G-pyrazol-3-yl)quinazolin-4-amine] | 1.9^b % | 2.4 | 226 | 3700 | 18.1 | 2.7 | –
O=S(=O)(c1c(F)cccc1F)N1CC2CC1CN2c1nc(Nc2cc(C3CC3)[nH]n2)c2ccccc2n1 (centres unmarked) [compound 15p, M-(5-cyclopropyl-1G-pyrazol-3-yl)-2-(5-((2,6-difluorophenyl)sulfonyl)-2,5-diazabicyclo[2.2.1]heptan-2-yl)quinazolin-4-amine] | 2.6^b % | 7.4 | 331 | 4400 | 180 | 4.1 | –
COc1cccc(S(=O)(=O)N2CC3CC2CN3c2nc(Nc3cc(C4CC4)[nH]n3)c3ccccc3n2)c1 (centres unmarked) [compound 15r, M-(5-cyclopropyl-1G-pyrazol-3-yl)-2-(5-((3-methoxyphenyl)sulfonyl)-2,5-diazabicyclo[2.2.1]heptan-2-yl)quinazolin-4-amine] | 0.2^b % | 19 | 492 | 5500 | 22.7 | 4.3 | –
CC(=O)c1ccc(S(=O)(=O)N2CC3CC2CN3c2nc(Nc3cc(C4CC4)[nH]n3)c3ccccc3n2)cc1 (centres unmarked) [compound 15s, 1-(4-((5-(4-((5-cyclopropyl-1G-pyrazol-3-yl)amino)quinazolin-2-yl)-2,5-diazabicyclo[2.2.1]heptan-2-yl)sulfonyl)phenyl)ethan-1-one] | 0.2^b % | 5.1 | 354 | 2200 | 19.2 | 2.9 | –
Cc1cccc(S(=O)(=O)N2CC3CC2CN3c2nc(Nc3cc(C4CC4)[nH]n3)c3ccccc3n2)c1 (centres unmarked) [compound 15t, M-(5-cyclopropyl-1G-pyrazol-3-yl)-2-(5-(/ -tolylsulfonyl)-2,5-diazabicyclo[2.2.1]heptan-2-yl)quinazolin-4-amine] | 0^b % | 35.5 | 563 | 6200 | 15.5 | 7.9 | –
